Test results as given in the kinase profiling compilation of Christmann-Franck et al. (2016).

What was measured:
Test in all cases: KINOMEscan competition binding
Details in all cases: compound 10.0 µM
[1] = test system: ABL1 (human), P00519 [E255K]
[2] = test system: ABL1 (human), P00519 [F317I]
[3] = test system: ABL1 (human), P00519 [F317L]
[4] = test system: ABL1 (human), P00519 [H396P]
[5] = test system: ABL1 (human), P00519 [M351T]
ADCK3 (human) = ADCK3 (human) (UniProt Q8NI60)
BRSK1 (human) = BRSK1 (human) (UniProt Q8TDC3)
CAMK1D (human) = CAMK1D (human) (UniProt Q8IU85)
CAMK1G (human) = CAMK1G (human) (UniProt Q96NX5)
CDC2L2 (human) = CDC2L2 (human) (UniProt Q9UQ88)
CDC42BPG (human) = CDC42BPG (human) (UniProt Q6DT37)
CDK11B (human) = CDK11B (human) (UniProt P21127)
CDK14 (human) = CDK14 (human) (UniProt O94921)
CDK15 (human) = CDK15 (human) (UniProt Q96Q40)
DCLK2 (human) = DCLK2 (human) (UniProt Q8N568)
EPHA4 (human) = EPHA4 (human) (UniProt P54764)
EPHB1 (human) = EPHB1 (human) (UniProt P54762)
ERBB4 (human) = ERBB4 (human) (UniProt Q15303)
FES (human) = FES (human) (UniProt P07332)
FGFR4 (human) = FGFR4 (human) (UniProt P22455)
GSK3B (human) = GSK3B (human) (UniProt P49841)
IKBKB (human) = IKBKB (human) (UniProt O14920)
INSR (human) = INSR (human) (UniProt P06213)
KDR (human) = KDR (human) (UniProt P35968)
LATS1 (human) = LATS1 (human) (UniProt O95835)
MAP2K6 (human) = MAP2K6 (human) (UniProt P52564)
MAP3K9 (human) = MAP3K9 (human) (UniProt P80192)
MAPK13 (human) = MAPK13 (human) (UniProt O15264)
MARK3 (human) = MARK3 (human) (UniProt P27448)
NLK (human) = NLK (human) (UniProt Q9UBE8)
NTRK1 (human) = NTRK1 (human) (UniProt P04629)
NUAK1 (human) = NUAK1 (human) (UniProt O60285)
PAK7 (human) = PAK7 (human) (UniProt Q9P286)
PKN2 (human) = PKN2 (human) (UniProt Q16513)
PLK1 (human) = PLK1 (human) (UniProt P53350)
PRKAA2 (human) = PRKAA2 (human) (UniProt P54646)
RPS6KA1 KD1 (human) = RPS6KA1 KD1 (human) (UniProt Q15418)
SIK1 (human) = SIK1 (human) (UniProt P57059)
TGFBR1 (human) = TGFBR1 (human) (UniProt P36897)
TXK (human) = TXK (human) (UniProt P42681)
TYRO3 (human) = TYRO3 (human) (UniProt Q06418)
WEE2 (human) = WEE2 (human) (UniProt P0C1S8)
WEE2 (human), sequence (P0C1S8 whole entry, looked up): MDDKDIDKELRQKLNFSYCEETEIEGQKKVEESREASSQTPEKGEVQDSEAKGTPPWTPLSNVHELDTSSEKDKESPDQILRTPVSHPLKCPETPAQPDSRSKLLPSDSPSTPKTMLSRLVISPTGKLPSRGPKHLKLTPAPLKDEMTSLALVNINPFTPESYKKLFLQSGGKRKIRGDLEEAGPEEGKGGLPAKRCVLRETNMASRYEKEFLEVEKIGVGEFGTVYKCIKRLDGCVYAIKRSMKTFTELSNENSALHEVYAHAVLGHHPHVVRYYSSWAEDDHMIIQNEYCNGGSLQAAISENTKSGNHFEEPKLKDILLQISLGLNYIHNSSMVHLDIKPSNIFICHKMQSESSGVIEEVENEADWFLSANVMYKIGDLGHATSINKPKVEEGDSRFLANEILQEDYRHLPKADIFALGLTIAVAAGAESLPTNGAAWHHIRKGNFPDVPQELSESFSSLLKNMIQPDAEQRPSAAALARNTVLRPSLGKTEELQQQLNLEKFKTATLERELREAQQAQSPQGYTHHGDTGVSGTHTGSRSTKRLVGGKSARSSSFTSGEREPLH

RPS6KA1 KD1 (human), sequence (Q15418 whole entry, looked up): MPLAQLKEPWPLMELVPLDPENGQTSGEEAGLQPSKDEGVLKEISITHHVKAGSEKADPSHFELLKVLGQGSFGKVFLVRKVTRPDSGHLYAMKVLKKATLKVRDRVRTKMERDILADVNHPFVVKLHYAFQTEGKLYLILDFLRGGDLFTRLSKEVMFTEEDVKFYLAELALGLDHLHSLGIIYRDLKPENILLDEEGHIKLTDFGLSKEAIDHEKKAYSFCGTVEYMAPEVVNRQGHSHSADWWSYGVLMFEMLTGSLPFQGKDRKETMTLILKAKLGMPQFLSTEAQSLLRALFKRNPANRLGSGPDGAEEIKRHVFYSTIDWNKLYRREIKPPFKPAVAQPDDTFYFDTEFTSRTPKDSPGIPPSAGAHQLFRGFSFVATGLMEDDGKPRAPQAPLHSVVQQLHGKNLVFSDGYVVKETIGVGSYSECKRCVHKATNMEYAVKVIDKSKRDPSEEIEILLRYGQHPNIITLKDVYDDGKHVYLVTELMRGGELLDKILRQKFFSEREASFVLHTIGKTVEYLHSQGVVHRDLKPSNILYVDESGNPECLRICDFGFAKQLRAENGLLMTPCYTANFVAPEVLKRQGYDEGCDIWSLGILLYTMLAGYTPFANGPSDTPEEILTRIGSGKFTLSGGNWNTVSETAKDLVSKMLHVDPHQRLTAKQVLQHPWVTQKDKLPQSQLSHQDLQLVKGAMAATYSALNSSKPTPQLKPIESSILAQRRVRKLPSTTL
ADCK3 (human), sequence (Q8NI60 whole entry, looked up): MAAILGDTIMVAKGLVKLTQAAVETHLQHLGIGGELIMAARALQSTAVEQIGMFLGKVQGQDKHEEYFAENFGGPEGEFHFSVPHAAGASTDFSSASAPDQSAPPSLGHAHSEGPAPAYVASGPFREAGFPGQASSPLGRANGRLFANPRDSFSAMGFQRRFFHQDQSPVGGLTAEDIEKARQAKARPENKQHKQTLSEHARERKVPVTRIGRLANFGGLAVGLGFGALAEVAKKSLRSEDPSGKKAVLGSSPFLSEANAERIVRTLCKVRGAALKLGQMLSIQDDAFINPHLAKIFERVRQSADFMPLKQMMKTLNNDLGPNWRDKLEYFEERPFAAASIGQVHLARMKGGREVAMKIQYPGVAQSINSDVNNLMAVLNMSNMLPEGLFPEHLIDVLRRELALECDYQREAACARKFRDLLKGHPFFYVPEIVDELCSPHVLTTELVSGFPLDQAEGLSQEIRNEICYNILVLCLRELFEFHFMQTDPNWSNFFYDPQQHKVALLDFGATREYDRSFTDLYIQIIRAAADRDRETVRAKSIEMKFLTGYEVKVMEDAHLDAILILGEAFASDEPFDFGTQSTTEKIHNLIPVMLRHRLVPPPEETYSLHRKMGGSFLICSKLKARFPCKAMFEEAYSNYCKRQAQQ
BRSK1 (human), sequence (Q8TDC3 whole entry, looked up): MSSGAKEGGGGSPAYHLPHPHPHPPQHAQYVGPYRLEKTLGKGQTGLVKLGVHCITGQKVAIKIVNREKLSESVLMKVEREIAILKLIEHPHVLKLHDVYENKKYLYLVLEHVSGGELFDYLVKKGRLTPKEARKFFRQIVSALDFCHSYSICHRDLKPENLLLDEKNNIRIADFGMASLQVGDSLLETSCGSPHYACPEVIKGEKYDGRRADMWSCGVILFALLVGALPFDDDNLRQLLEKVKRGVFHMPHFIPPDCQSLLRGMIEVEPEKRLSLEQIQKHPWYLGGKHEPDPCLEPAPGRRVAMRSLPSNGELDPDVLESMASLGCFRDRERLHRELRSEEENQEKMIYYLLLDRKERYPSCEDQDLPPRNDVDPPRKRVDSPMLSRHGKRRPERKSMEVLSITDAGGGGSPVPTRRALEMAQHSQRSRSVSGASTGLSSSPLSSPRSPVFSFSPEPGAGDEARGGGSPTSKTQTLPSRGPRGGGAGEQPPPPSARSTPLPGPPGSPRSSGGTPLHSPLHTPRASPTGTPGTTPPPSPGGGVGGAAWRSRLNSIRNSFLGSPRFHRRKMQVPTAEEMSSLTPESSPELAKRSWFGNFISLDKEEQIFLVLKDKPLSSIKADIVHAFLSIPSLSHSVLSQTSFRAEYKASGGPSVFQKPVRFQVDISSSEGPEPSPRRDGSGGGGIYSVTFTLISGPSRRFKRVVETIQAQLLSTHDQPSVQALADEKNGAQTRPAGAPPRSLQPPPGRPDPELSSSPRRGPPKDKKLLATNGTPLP
CDK11B (human), sequence (P21127 whole entry, looked up): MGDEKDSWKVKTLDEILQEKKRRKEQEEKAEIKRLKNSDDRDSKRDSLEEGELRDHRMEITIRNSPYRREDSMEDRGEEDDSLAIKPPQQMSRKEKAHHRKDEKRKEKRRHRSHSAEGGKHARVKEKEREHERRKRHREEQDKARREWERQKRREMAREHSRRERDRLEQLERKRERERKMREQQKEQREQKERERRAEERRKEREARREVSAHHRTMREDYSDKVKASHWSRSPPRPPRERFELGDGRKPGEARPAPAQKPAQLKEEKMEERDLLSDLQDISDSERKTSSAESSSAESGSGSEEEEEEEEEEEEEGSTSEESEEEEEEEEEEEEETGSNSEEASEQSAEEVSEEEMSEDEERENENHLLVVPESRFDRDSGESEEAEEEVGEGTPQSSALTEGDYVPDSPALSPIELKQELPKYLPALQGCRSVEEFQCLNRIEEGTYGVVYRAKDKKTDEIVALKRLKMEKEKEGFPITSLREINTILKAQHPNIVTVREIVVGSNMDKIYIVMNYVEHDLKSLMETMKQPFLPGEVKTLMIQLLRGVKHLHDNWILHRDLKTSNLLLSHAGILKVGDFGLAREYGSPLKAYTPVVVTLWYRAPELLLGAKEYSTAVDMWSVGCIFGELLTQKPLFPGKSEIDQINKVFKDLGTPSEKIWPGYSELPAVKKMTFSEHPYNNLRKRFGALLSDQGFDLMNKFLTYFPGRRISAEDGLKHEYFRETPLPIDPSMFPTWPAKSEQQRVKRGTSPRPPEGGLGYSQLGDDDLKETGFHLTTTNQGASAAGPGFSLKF
CDK15 (human), sequence (Q96Q40 whole entry, looked up): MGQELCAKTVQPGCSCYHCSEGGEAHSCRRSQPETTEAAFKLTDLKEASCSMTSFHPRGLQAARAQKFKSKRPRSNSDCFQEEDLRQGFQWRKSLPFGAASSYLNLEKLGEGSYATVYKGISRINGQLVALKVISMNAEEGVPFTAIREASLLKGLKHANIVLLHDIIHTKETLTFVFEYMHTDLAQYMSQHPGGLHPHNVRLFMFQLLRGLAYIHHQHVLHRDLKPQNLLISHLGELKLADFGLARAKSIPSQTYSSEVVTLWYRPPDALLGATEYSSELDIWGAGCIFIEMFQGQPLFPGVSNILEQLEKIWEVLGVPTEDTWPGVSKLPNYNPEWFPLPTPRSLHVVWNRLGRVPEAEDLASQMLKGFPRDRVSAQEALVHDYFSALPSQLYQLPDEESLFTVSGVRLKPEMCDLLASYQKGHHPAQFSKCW
TGFBR1 (human), sequence (P36897 whole entry, looked up): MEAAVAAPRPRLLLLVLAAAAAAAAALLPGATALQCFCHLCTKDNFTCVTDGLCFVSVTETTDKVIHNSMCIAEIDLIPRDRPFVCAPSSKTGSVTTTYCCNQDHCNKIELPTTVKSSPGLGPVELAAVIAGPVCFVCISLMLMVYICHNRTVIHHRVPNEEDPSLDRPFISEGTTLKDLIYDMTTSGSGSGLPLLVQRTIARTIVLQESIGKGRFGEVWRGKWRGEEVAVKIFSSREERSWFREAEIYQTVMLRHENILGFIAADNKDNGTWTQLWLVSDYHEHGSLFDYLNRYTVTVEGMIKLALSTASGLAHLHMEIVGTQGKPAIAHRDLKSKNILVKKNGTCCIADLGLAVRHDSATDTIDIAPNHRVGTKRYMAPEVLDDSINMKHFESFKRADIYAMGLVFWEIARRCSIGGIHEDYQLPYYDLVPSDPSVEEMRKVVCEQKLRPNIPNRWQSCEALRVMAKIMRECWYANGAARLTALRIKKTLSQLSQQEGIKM
CAMK1D (human), sequence (Q8IU85 whole entry, looked up): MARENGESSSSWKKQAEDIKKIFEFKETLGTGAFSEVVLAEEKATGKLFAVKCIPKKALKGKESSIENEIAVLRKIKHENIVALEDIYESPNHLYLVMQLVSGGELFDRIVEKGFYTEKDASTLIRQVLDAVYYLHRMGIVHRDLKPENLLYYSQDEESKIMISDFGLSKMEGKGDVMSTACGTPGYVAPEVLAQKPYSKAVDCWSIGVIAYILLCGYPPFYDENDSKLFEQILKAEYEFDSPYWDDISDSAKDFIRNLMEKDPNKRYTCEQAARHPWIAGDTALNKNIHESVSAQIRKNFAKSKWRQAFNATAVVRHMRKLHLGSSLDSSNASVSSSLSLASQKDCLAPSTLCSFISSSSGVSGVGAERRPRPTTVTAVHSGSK

CN1C(=O)c2ccccc2N(C)c2nc(Nc3ccc(N4CCC(O)CC4)cc3)ncc21
kinase still bound, per cent of control [1]: 0.6% | kinase still bound, per cent of control [2]: 28% | kinase still bound, per cent of control [3]: 20% | kinase still bound, per cent of control [4]: 0.15% | kinase still bound, per cent of control [5]: 3% | kinase still bound, per cent of control (ADCK3 (human)): 100% | kinase still bound, per cent of control (BRSK1 (human)): 56% | kinase still bound, per cent of control (CAMK1D (human)): 98% | kinase still bound, per cent of control (CAMK1G (human)): 91% | kinase still bound, per cent of control (CDC2L2 (human)): 100% | kinase still bound, per cent of control (CDC42BPG (human)): 100% | kinase still bound, per cent of control (CDK11B (human)): 100% | kinase still bound, per cent of control (CDK14 (human)): 100% | kinase still bound, per cent of control (CDK15 (human)): 100% | kinase still bound, per cent of control (DCLK2 (human)): 0.6% | kinase still bound, per cent of control (EPHA4 (human)): 97% | kinase still bound, per cent of control (EPHB1 (human)): 100% | kinase still bound, per cent of control (ERBB4 (human)): 100% | kinase still bound, per cent of control (FES (human)): 100% | kinase still bound, per cent of control (FGFR4 (human)): 73% | kinase still bound, per cent of control (GSK3B (human)): 88% | kinase still bound, per cent of control (IKBKB (human)): 86% | kinase still bound, per cent of control (INSR (human)): 80% | kinase still bound, per cent of control (KDR (human)): 97% | kinase still bound, per cent of control (LATS1 (human)): 92% | kinase still bound, per cent of control (MAP2K6 (human)): 100% | kinase still bound, per cent of control (MAP3K9 (human)): 91% | kinase still bound, per cent of control (MAPK13 (human)): 100% | kinase still bound, per cent of control (MARK3 (human)): 60% | kinase still bound, per cent of control (NLK (human)): 74% | kinase still bound, per cent of control (NTRK1 (human)): 64% | kinase still bound, per cent of control (NUAK1 (human)): 17% | kinase still bound, per cent of control (PAK7 (human)): 87% | kinase still bound, per cent of control (PKN2 (human)): 92% | kinase still bound, per cent of control (PLK1 (human)): 50% | kinase still bound, per cent of control (PRKAA2 (human)): 31% | kinase still bound, per cent of control (RPS6KA1 KD1 (human)): 66% | kinase still bound, per cent of control (SIK1 (human)): 79% | kinase still bound, per cent of control (TGFBR1 (human)): 73% | kinase still bound, per cent of control (TXK (human)): 85% | kinase still bound, per cent of control (TYRO3 (human)): 100% | kinase still bound, per cent of control (WEE2 (human)): 70%

CN1CCN(c2ccc(C(=O)Nc3ncc4c(n3)N(C)c3ccccc3C(=O)N4C)cc2)CC1
kinase still bound, per cent of control [1]: 100% | kinase still bound, per cent of control [2]: 96% | kinase still bound, per cent of control [3]: 83% | kinase still bound, per cent of control [4]: 88% | kinase still bound, per cent of control [5]: 100% | kinase still bound, per cent of control (ADCK3 (human)): 100% | kinase still bound, per cent of control (BRSK1 (human)): 87% | kinase still bound, per cent of control (CAMK1D (human)): 100% | kinase still bound, per cent of control (CAMK1G (human)): 100% | kinase still bound, per cent of control (CDC2L2 (human)): 100% | kinase still bound, per cent of control (CDC42BPG (human)): 100% | kinase still bound, per cent of control (CDK11B (human)): 100% | kinase still bound, per cent of control (CDK14 (human)): 100% | kinase still bound, per cent of control (CDK15 (human)): 88% | kinase still bound, per cent of control (DCLK2 (human)): 22% | kinase still bound, per cent of control (EPHA4 (human)): 97% | kinase still bound, per cent of control (EPHB1 (human)): 100% | kinase still bound, per cent of control (ERBB4 (human)): 100% | kinase still bound, per cent of control (FES (human)): 100% | kinase still bound, per cent of control (FGFR4 (human)): 100% | kinase still bound, per cent of control (GSK3B (human)): 79% | kinase still bound, per cent of control (IKBKB (human)): 100% | kinase still bound, per cent of control (INSR (human)): 100% | kinase still bound, per cent of control (KDR (human)): 86% | kinase still bound, per cent of control (LATS1 (human)): 88% | kinase still bound, per cent of control (MAP2K6 (human)): 100% | kinase still bound, per cent of control (MAP3K9 (human)): 100% | kinase still bound, per cent of control (MAPK13 (human)): 90% | kinase still bound, per cent of control (MARK3 (human)): 100% | kinase still bound, per cent of control (NLK (human)): 100% | kinase still bound, per cent of control (NTRK1 (human)): 82% | kinase still bound, per cent of control (NUAK1 (human)): 90% | kinase still bound, per cent of control (PAK7 (human)): 100% | kinase still bound, per cent of control (PKN2 (human)): 78% | kinase still bound, per cent of control (PLK1 (human)): 100% | kinase still bound, per cent of control (PRKAA2 (human)): 100% | kinase still bound, per cent of control (RPS6KA1 KD1 (human)): 93% | kinase still bound, per cent of control (SIK1 (human)): 100% | kinase still bound, per cent of control (TGFBR1 (human)): 100% | kinase still bound, per cent of control (TXK (human)): 100% | kinase still bound, per cent of control (TYRO3 (human)): 100% | kinase still bound, per cent of control (WEE2 (human)): 100%

CN1C(=O)c2ccccc2N(C)c2nc(NS(=O)(=O)c3ccc(N)cc3)ncc21
kinase still bound, per cent of control [1]: 100% | kinase still bound, per cent of control [2]: 100% | kinase still bound, per cent of control [3]: 100% | kinase still bound, per cent of control [4]: 100% | kinase still bound, per cent of control [5]: 96% | kinase still bound, per cent of control (ADCK3 (human)): 99% | kinase still bound, per cent of control (BRSK1 (human)): 97% | kinase still bound, per cent of control (CAMK1D (human)): 100% | kinase still bound, per cent of control (CAMK1G (human)): 100% | kinase still bound, per cent of control (CDC2L2 (human)): 100% | kinase still bound, per cent of control (CDC42BPG (human)): 100% | kinase still bound, per cent of control (CDK11B (human)): 96% | kinase still bound, per cent of control (CDK14 (human)): 100% | kinase still bound, per cent of control (CDK15 (human)): 100% | kinase still bound, per cent of control (DCLK2 (human)): 70% | kinase still bound, per cent of control (EPHA4 (human)): 100% | kinase still bound, per cent of control (EPHB1 (human)): 100% | kinase still bound, per cent of control (ERBB4 (human)): 100% | kinase still bound, per cent of control (FES (human)): 90% | kinase still bound, per cent of control (FGFR4 (human)): 100% | kinase still bound, per cent of control (GSK3B (human)): 94% | kinase still bound, per cent of control (IKBKB (human)): 100% | kinase still bound, per cent of control (INSR (human)): 95% | kinase still bound, per cent of control (KDR (human)): 88% | kinase still bound, per cent of control (LATS1 (human)): 74% | kinase still bound, per cent of control (MAP2K6 (human)): 100% | kinase still bound, per cent of control (MAP3K9 (human)): 100% | kinase still bound, per cent of control (MAPK13 (human)): 90% | kinase still bound, per cent of control (MARK3 (human)): 100% | kinase still bound, per cent of control (NLK (human)): 100% | kinase still bound, per cent of control (NTRK1 (human)): 77% | kinase still bound, per cent of control (NUAK1 (human)): 86% | kinase still bound, per cent of control (PAK7 (human)): 88% | kinase still bound, per cent of control (PKN2 (human)): 70% | kinase still bound, per cent of control (PLK1 (human)): 100% | kinase still bound, per cent of control (PRKAA2 (human)): 96% | kinase still bound, per cent of control (RPS6KA1 KD1 (human)): 100% | kinase still bound, per cent of control (SIK1 (human)): 100% | kinase still bound, per cent of control (TGFBR1 (human)): 100% | kinase still bound, per cent of control (TXK (human)): 96% | kinase still bound, per cent of control (TYRO3 (human)): 100% | kinase still bound, per cent of control (WEE2 (human)): 100%
